Assay results published in patent US5869658A, “Photochromic indeno-fused naptho[2,1-b]pyrans” (PPG Industries, Inc., priority 1997, dated 1999).

Tests used:
[1] = Lambda max of photochromic test squares by UV-Visible spectrophotometer; type: physicochemical; design: unit not given here; details: Varian Cary 3; for (λ) max (VIS): activated (colored) form in polymer test square, visible spectrum wavelength of maximum absorption; for (λ) max (UV): photochromic compound in polymer test square, ultraviolet wavelength closest to the visible spectrum
Experimental: (§1) Testing was done with the photochromic compounds described in Examples 1-5 and 7-9 in the following manner. A quantity of photochromic compound calculated to yield a 1.5×10^-3 molal solution was added to a flask containing 50 grams of a monomer blend of 4 parts ethoxylated bisphenol A dimethacrylate (BPA 2EO DMA), 1 part poly(ethylene glycol) 600 dimethacrylate, and 0.033 weight percent 2,2'-azobis(2-methyl propionitrile) (AIBN). The photochromic compound was dissolved into the monomer blend by stirring and gentle heating. After a clear solution was obtained, it was poured into a flat sheet mold having the interior dimensions of 2.2 mm×6 inches (15.24 cm)×6 inches (15.24 cm). The mold was sealed and placed in a horizontal air flow, programmable oven programmed to increase the temperature from 40° C. to 95° C. over a 5 hour interval, hold the temperature at 95° C. for 3 hours and then lower it to 60° C. for at least 2 hours. After the mold was opened, the polymer sheet was cut using a diamond blade saw into 2 inch (5.1 centimeters) test squares.
(§2) The Δ OD/Min, which represents the sensitivity of the photochromic compound's response to UV light, was measured over the first five (5) seconds of UV exposure, then expressed on a per minute basis. The saturation optical density (Δ OD@ Sat) was taken under identical conditions as the Δ OD/Min, except UV exposure was continued for 20 minutes. The lambda max (Vis) is the wavelength in the visible spectrum at which the maximum absorption of the activated (colored) form of the photochromic compound in a test square occurs. The lambda max (Vis) wavelength was determined by testing the photochromic test square polymerizates of Part A in a Varian Cary 3 UV-Visible spectrophotometer. The lambda (λ) max (UV) is the wavelength in the ultraviolet range closest to the visible spectrum at which the absorption of the photochromic compound occurs. This absorption was also determined with the same spectrophotometer. The bleach rate (T 1/2) is the time interval in seconds for the absorbance of the activated form of the photochromic compound in the test squares to reach one half the highest absorbance at room temperature (75° F., 23.90° C.) after removal of the source of activating light.

[2] = Photochromic response of test squares on an optical bench (ΔOD/Min, ΔOD at saturation, bleach rate); type: physicochemical; details: for ΔOD @ saturation: UV exposure continued for 20 minutes; for ΔOD @ saturation / ΔOD/MIN sensitivity: 75° F., 1.5×10^-3 molal in polymer; for ΔOD/MIN sensitivity: first five seconds of UV exposure, expressed per minute; for Bleach T 1/2: time to one half the highest absorbance at room temperature (75° F.) after removal of activating light
Experimental: as §1
The photochromic test squares prepared in Part A were tested for photochromic response on an optical bench. Prior to testing on the optical bench, the photochromic test squares were exposed to 365 nanometer ultraviolet light for about 15 minutes to activate the photochromic compounds and then placed in a 76° C. oven for about 15 minutes to bleach or inactivate the photochromic compounds. The test squares were then cooled to room temperature, exposed to fluorescent room lighting for at least 2 hours and then kept covered for at least 2 hours prior to testing on an optical bench maintained at 75° F. (23.90° C.). The bench was fitted with a 150 watt Xenon arc lamp, a remote controlled shutter, a copper sulfate bath acting as a heat sink for the arc lamp, a Schott WG-320 nm cut-off filter which removes short wavelength radiation; neutral density filter(s) and a sample holder in which the square to be tested was inserted. A collimated beam of light from a tungsten lamp was passed through the square at a small angle (approximately 30°) normal to the square. After passing through the square, the light from the tungsten lamp was directed to a detector through Spectral Energy Corp. GM-200 monochromator set at the previously determined visible lambda max of the photochromic compound being measured. The output signals from the detector were processed by a radiometer.
Change in optical density (ΔOD) was determined by inserting a test square in the bleached state into the sample holder, adjusting the transmittance scale to 100% opening the shutter from the Xenon lamp to provide ultraviolet radiation to change the test square from the bleached state to an activated (i.e., darkened) state, measuring the transmittance in the activated state, and calculating the change in optical density according to the formula: ΔOD=log(100/%Ta), where %Ta is the percent transmittance in the activated state and the logarithm is to the base 10.
as §2, with “The bleach rate (T 1/2) is the time interval in seconds for the absorbance of the activated form of the photochromic compound in the test squares to reach one half the highest absorbance at room temperature (75° F., 23.90° C.) after removal of the source of activating light.” left out

Compound	(λ) max (VIS) [1]	(λ) max (UV) [1]	ΔOD @ saturation [2]	ΔOD/MIN sensitivity [2]	Bleach T 1/2 [2] [s]
COc1ccc2c3c(c4c(c2c1)C=CC(c1ccccc1)(c1ccccc1)O4)Cc1ccccc1-3 [Example 1, 6-methoxy-2,2-diphenyl-2,13-dihydro-indeno[1'2':4,3]naphtho[2,1-b]pyran]	437	366	0.38	0.52 ΔOD/MIN	42
COc1cc2c3c(c4c(c2cc1OC)-c1ccccc1C4)OC(c1ccccc1)(c1ccccc1)C=C3 [Example 2, 6,7-dimethoxy-2,2-diphenyl-2,13-dihydro-indeno[1'2':4,3]naphtho[2,1-b]pyran]	443	387	0.44	0.48 ΔOD/MIN	51
COc1ccc(C2(c3ccccc3F)C=Cc3c(c4c(c5cc(OC)c(OC)cc35)-c3ccccc3C4)O2)cc1 (stereo not shown) [Example 3, 6,7-dimethoxy-2-(2-fluorophenyl)-2-(4-methoxyphenyl)-2,13-dihydro-indeno[1',2':4,3]naphtho[2,1-b]pyran]	464	385	1.22	0.48 ΔOD/MIN	227
COc1cc2c3c(c4c(c2cc1OC)-c1ccccc1C4C)OC(c1ccccc1)(c1ccccc1)C=C3 (stereo not shown) [Example 4, 6,7-dimethoxy-2,2-diphenyl-13-methyl-2,13-dihydro-indeno[1',2':4,3]naphtho[2,1-b]pyran]	442	356	0.38	0.43 ΔOD/MIN	62
COc1cc2c3c(c4c(c2cc1OC)-c1ccccc1C4(C)C)OC(c1ccccc1)(c1ccccc1)C=C3 [Example 5, 6,7-dimethoxy-2,2-diphenyl-13,13-dimethyl-2,13-dihydro-indeno[1',2':4,3]naphtho[2,1-b]pyran]	446	358	0.37	0.39 ΔOD/MIN	58
CCCCC1(O)c2ccccc2-c2c1c1c(c3cc(OC)c(OC)cc23)C=CC(c2ccccc2)(c2ccccc2)O1 (stereo not shown) [Example 7, 6,7-dimethoxy-2,2-diphenyl-13-hydroxy-13-butyl-2,13-dihydro-indeno[1',2':4,3]naphtho[2,1-b]pyran]	445	356	0.23	0.41 ΔOD/MIN	38
COc1cc2c3c(c4c(c2cc1OC)-c1ccccc1C4(C)O)OC(c1ccccc1)(c1ccccc1)C=C3 (stereo not shown) [Example 8, 6,7-dimethoxy-2,2-diphenyl-13-hydroxy-13-methyl-2,13-dihydro-indeno[1',2':4,3]naphtho[2,1-b]pyran]	459	361	0.25	0.41 ΔOD/MIN	35
COc1cc2c3c(c4c(c2cc1OC)-c1ccccc1C4O)OC(c1ccccc1)(c1ccccc1)C=C3 (stereo not drawn) [Example 9, 6,7-dimethoxy-2,2-diphenyl-13-hydroxy-2,13-dihydro-indeno[1',2':4,3]naphtho[2,l-b]pyran]	469	359	0.17	0.28 ΔOD/MIN	31
